Source: patent EP1001810B1, “PHARMACEUTICAL COMPOSITION WITH NEUROTROPHIC-LIKE BIOLOGICAL ACTIVITY” (McGill University, priority 1997, dated 1999)
Where a SMILES comes first, the peptide text is derived from it. Bridges are numbered along the chain shown (N, C = ends).

Experiments:
4-3.6 cells = assay: Cell survival in SFM challenged with tyrosine kinase inhibitor K252a; format: cell-based, rat; details: highest concentration tested (500 nM)
Protocol: 5,000 cells/well in protein-free media (PFHM-II, GIBCO, Toronto, Ontario) containing 0.1% BSA (Crystalline fraction V, Sigma, St. Louis MO) were added to 96 well plates (Falcon, Mississauga, Ontario). The cultures were untreated or supplemented with serial dilutions of neurotrophins (positive control), test mAbs, or mouse IgG (negative control). The survival profile of the cells was quantitated using the MTT colorimetric assay after 48-72 hours. Percent protection was standardized relative to 1 nM NGF concentrations using the MTT optical density (OD 590 nm) and following formula: [(ODtest -ODuntreated )/(OD1nM NGF-ODuntreated )] × 100. [formula] The OD of untreated samples (SFM only) were ~10% of 1 nM NGF control.
Some survival experiments were also carried out in the presence of various concentrations of the tyrosine kinase inhibitor K252a. The concentrations of K252a used were previously reported.
Assays were done as described in Table 1 legend. 4-3.6 cell survival in SFM achieved by incubation with the indicated ligands. Optimal ligand concentrations were used as per Table 3 (1 nM NGF, 5 nM 5C3 mAb and 5 nM 5C3 + 0.5 nM MC192 mAbs) . Cells were challenged with various concentrations of K252a and % survival was calculated using 1 nM NGF as 100% standard. K252a inhibits both NGF and mAb-mediated survival in a dose dependent manner and to a similar relative degree.

TrkA = TrkA (Homo sapiens, UniProt P04629); details: binds TrkA specifically (LeSauteur 1995); read-out: apparent Kd; cited from earlier work
Chain of TrkA (P04629 33-796, species assumed): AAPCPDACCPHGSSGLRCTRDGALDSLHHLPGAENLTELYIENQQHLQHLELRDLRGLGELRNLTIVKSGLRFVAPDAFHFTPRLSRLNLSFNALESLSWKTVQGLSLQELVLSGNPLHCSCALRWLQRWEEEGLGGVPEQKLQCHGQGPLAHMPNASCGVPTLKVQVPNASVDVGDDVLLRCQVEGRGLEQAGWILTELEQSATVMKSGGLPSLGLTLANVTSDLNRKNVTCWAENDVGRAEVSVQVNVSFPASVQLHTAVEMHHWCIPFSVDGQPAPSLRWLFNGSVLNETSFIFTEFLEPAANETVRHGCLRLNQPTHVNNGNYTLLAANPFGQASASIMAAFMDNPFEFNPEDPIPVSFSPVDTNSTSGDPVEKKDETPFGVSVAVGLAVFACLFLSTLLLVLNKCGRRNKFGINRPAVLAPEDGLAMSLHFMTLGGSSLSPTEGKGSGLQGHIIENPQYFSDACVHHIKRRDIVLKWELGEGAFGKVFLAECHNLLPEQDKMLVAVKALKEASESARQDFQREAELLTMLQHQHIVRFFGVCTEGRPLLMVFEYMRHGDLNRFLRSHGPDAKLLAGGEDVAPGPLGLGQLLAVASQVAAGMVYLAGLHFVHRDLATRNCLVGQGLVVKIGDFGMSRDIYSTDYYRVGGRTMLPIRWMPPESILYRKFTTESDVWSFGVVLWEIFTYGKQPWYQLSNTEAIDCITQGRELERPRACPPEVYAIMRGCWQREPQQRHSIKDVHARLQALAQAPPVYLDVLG

SMILES | toxicity to 4-3.6 cells (4-3.6 cells) | Kd (TrkA)
COC(=O)[C@@]1(O)C[C@H]2O[C@]1(C)n1c3ccccc3c3c4c(c5c6ccccc6n2c5c31)C(=O)NC4 [K252a] | not toxic | –
CC(=O)N[C@@H](Cc1ccc(O)cc1)C(=O)N[C@H]1CSSC[C@@H](C(=O)N[C@@H](Cc2ccc(O)cc2)C(=O)O)NC(=O)[C@H](CCC(N)=O)NC(=O)[C@H](CCCCN)NC(=O)[C@H](CCC(=O)O)NC(=O)[C@H](CC(=O)O)NC(=O)[C@H]([C@@H](C)O)NC1=O [C(92-96)] (Ac-YCTDEKQCY-OH; disulfide 2-8) | – | ~100 nM
